Measurements: US8552026B2, “Isatin derivatives, medicaments containing the isatin derivatives and method for its preparation” (King Saud University, priority 2011, dated 2013)
Converted amounts (≈) assume the structure as drawn.

Assays:
Assay in all cases: In vitro anti-TB activity, agar dilution method
Format in all cases: cell-based
[1] = test system: Mycobacterium cheleneo (ATCC 35751); conditions: ATCC35751, 35° C., 48 hours, read-out: MIC (μg/ml)/Mycobacterium strain M. cheleneo
Method: (§1) The anti-TB activity of the synthesized compound was tested using the agar dilution method, see T. Aboul-Fadl, F. A. Mohammed, E. A. Hassan, Arch. Pharm. Res. 26 (2003) 778-784 and NCCLS Susceptibility Testing of Mycobacteria, Nocardia, and Other Aerobic Actinomycetes; Tentative Standard NCCLS document M24-T2 [ISBN 1-56238-423-6], second ed., NCCLS, 960 West Valley Road, Suite 1400, Wayne, Pa. 2000, 19087-1898, USA.
(§2) The synthesized compound was solubilized in DMSO at a concentration of 1 mg/ml. Appropriate amount was diluted first with 10% molten agar to give a concentration of 200 μg/ml. Further dilutions for the active compound were done to give 100, 50, 25, 12.5, 6.25 and up to 0.625 μg/ml. The agar and the compound solution were mixed thoroughly and the mixture was poured in Petri-dishes on a level surface to result in an agar depth of 3-4 mm and allowed to harden. The incula were prepared by growing overnight culture in Mueller-Hinton broth. The cultures were diluted 1:100. Test organisms were streaked in a radial pattern and plates were incubated at 35° C. for 48 hours. Control experiments consisted of the tested TB strains, DMSO and the growing media were treated in the same manner. Complete […] of growth was observed prior to declaring the compound to be active. The synthesized compound was evaluated for the antimycobacterial activity in vitro again four Mycobacterium strains: Mycobacterium intercellulari (ATCC35743), Mycobacterium xenopi (ATCC 14470), Mycobacterium cheleneo (ATCC 35751) and Mycobacterium smegmatis (ATCC 35797) by the agar dilution method. Isoniazid (INH) was used as a reference drug and control experiments done using a growth media free from drugs or the tested compound. Results of the in vitro antitubercular activity on the tested compound along with standard drug for comparison are given in table 1.

[2] = test system: Mycobacterium intercellulari (ATCC35743); conditions: for MIC: Mycobacterium, ATCC35743, agar dilution, 35° C., 48 hours, read-out: MIC (μg/ml)/Mycobacterium strain M. intercellulari
Method: as §1, §2

[3] = test system: Mycobacterium smegmatis (ATCC 35797); conditions: Mycolicibacterium smegmatis, ATCC35797, 35° C., 48 hours, read-out: MIC (μg/ml)/Mycobacterium strain M. smegmatis
Method: as §1, §2

[4] = test system: Mycobacterium xenopi (ATCC 14470); conditions: ATCC14470, 35° C., 48 hours, read-out: MIC (μg/ml)/Mycobacterium strain M. xenopi
Method: as §1, §2

SMILES	MIC [1] [µg/mL]	MIC [2] [µg/mL]	MIC [3] [µg/mL]	MIC [4] [µg/mL]	potency relative to INH in vitro ([2]; antitubercular activity screening, all four strains, versus first line drug INH) [times]
NNC(=O)c1ccncc1 [INH, Isoniazid, reference compound]	12.5 (≈ 91.1 µM)	12.5 (≈ 91.1 µM)	12.5 (≈ 91.1 µM)	12.5 (≈ 91.1 µM)	–
CCn1cc(C(=O)NN=C2C(=O)N(Cc3ccccc3)c3ccccc32)c(=O)c2ccc(C)nc21 [R = H; R1 = H, N′-(1-benzyl-2-oxoindolin-3-ylidene)-1-ethyl-1,4-dihydro-7-methyl-4-oxo-1,8-naphthyridine-3-carbohydrazid]	0.625 (≈ 1.34 µM)	0.625 (≈ 1.34 µM)	0.625 (≈ 1.34 µM)	0.625 (≈ 1.34 µM)	20
